Publication PMC9833666, “Designing and identifying β-hairpin peptide macrocycles with antibiotic potential” (Science Advances, 2023)
Where two headings read alike, the source gives them in different places. Bridge positions count the residues as written; N and C are the ends. Peptide text beside a SMILES is read from it.

Tested on: Escherichia coli W3110
Type: cell-based
Conditions: for Ec W3110 MIC MH: E. coli W3110, MH medium; for Ec W3110 MIC RPMI: E. coli W3110, RPMI medium
Procedure: MICs were performed by a modifiedClinical and Laboratory Standards Institute) procedure. […] Separately, E. coli W3110 or A. baumannii AB5075 was grown overnight in 5 ml of standard MH at 37°C. Cells from these cultures were diluted to a concentration of 5 × 10^5 to 6 × 10^5 cells/ml in either standard MH, MHII, RPMI, or fetal bovine serum, and 90 μl was added to each well of the 96-well plate containing diluted peptide. Plates were wrapped twice in parafilm and incubated at 37°C for 18 to 24 hours. Wells were examined by eye against wells with no bacteria for signs of growth. MICs were reported as the minimum concentration with no observable growth. In cases where triplicate samples differed, the concentration supported by the median of the three replicates was reported.

W3110 MIC (W3110) [µg/mL] | Ec W3110 MIC MH [µg/mL] | Ec W3110 MIC RPMI [µg/mL] | W3110 MIC MH (W3110) [µg/mL] | W3110 MIC RPMI (W3110) [µg/mL] | W3110 MIC MH (E. coli W3110, standard Mueller-Hinton broth, 37°C, 18-24 h, median of n=3) [µg/mL] | SMILES
– | 16 | 32 | 16 | 32 | – | CC(C)C[C@@H]1NC(=O)[C@H](CCCNC(=N)N)NC(=O)[C@H](CCCNC(=N)N)NC(=O)[C@H](CCCNC(=N)N)NC(=O)CNC(=O)[C@H](CC(N)=O)NC(=O)[C@H](CC(N)=O)NC(=O)[C@H](CC(C)C)NC(=O)[C@H](CCCNC(=N)N)NC(=O)[C@H](C(C)C)NC(=O)[C@H](CCCNC(=N)N)NC(=O)[C@H](CC(C)C)NC(=O)[C@@H](N)CSSC[C@@H](C(=O)O)NC(=O)[C@H](C(C)C)NC(=O)[C@H](CCC(N)=O)NC(=O)[C@H](CC(C)C)NC(=O)[C@H](CO)NC(=O)[C@H](C(C)C)NC(=O)[C@H](CCCCN)NC1=O [SySA-71] (H-CLRVRLNNGRRRLKVSLQVC-OH; disulfide 1-20; N-terminus and C-terminus assumed)
– | 32 | 8 | 32 | 8 | – | CC[C@H](C)[C@@H]1NC(=O)[C@H](CCCNC(=N)N)NC(=O)[C@H](C(C)C)NC(=O)[C@@H](N)CSSC[C@@H](C(=O)O)NC(=O)[C@H](C(C)C)NC(=O)[C@H](CCC(=O)O)NC(=O)[C@H](CC(C)C)NC(=O)[C@H](CO)NC(=O)[C@H](C(C)C)NC(=O)[C@H](CCCCN)NC(=O)[C@H](C(C)C)NC(=O)[C@H](CCCNC(=N)N)NC(=O)[C@H](CCCNC(=N)N)NC(=O)[C@H](CCCNC(=N)N)NC(=O)[C@H](CCCNC(=N)N)NC(=O)[C@H](CC(N)=O)NC(=O)[C@H](CC(N)=O)NC(=O)[C@H](CC(C)C)NC(=O)[C@H](CCCNC(=N)N)NC1=O [SySA-37] (H-CVRIRLNNRRRRVKVSLEVC-OH; disulfide 1-20; N-terminus and C-terminus assumed)
– | 128 | 8 | – | 8 | 128 | CC[C@H](C)[C@@H]1NC(=O)[C@H](CCCCN)NC(=O)[C@H](CC(C)C)NC(=O)CNC(=O)[C@H](CCCNC(=N)N)NC(=O)[C@H](CCCNC(=N)N)NC(=O)[C@H](CCCNC(=N)N)NC(=O)[C@H](CC(N)=O)NC(=O)[C@H](CC(N)=O)NC(=O)[C@H](CC(C)C)NC(=O)[C@H](CCCNC(=N)N)NC(=O)[C@H](C(C)C)NC(=O)[C@H](CCCNC(=N)N)NC(=O)[C@H](C(C)C)NC(=O)[C@@H](N)CSSC[C@@H](C(=O)O)NC(=O)[C@H](C(C)C)NC(=O)[C@H](CCC(N)=O)NC(=O)[C@H](CC(C)C)NC(=O)[C@H](CO)NC1=O [SySA-9] (H-CVRVRLNNRRRGLKISLQVC-OH; disulfide 1-20; N-terminus and C-terminus assumed)
>256 | – | – | – | – | – | CC[C@H](C)[C@@H]1NC(=O)[C@H](CCCNC(=N)N)NC(=O)[C@H](C(C)C)NC(=O)[C@H](CCCNC(=N)N)NC(=O)[C@@H](N)CSSC[C@@H](C(=O)O)NC(=O)[C@H](CCC(=O)O)NC(=O)[C@H](C(C)C)NC(=O)[C@H](CCC(N)=O)NC(=O)[C@H](CC(C)C)NC(=O)[C@H](CCCCN)NC(=O)[C@H](CC(C)C)NC(=O)[C@H](CCCNC(=N)N)NC(=O)CNC(=O)[C@H](CO)NC(=O)[C@H](CCCNC(=N)N)NC(=O)[C@H](CC(N)=O)NC(=O)[C@H](CC(N)=O)NC(=O)[C@H](C(C)C)NC(=O)[C@H](CC(N)=O)NC1=O [SyRC-14] (H-CRVRINVNNRSGRLKLQVEC-OH; disulfide 1-20)
– | 256 | 32 | 256 | 32 | – | CC(C)C[C@@H]1NC(=O)CNC(=O)[C@H](CCCNC(=N)N)NC(=O)[C@H](CCCNC(=N)N)NC(=O)[C@H](CCCNC(=N)N)NC(=O)[C@H](CC(N)=O)NC(=O)[C@H](CC(N)=O)NC(=O)[C@H](CC(C)C)NC(=O)[C@H](CCCNC(=N)N)NC(=O)[C@H](C(C)C)NC(=O)[C@H](CCCNC(=N)N)NC(=O)[C@H](C(C)C)NC(=O)[C@@H](N)CSSC[C@@H](C(=O)O)NC(=O)[C@H](C(C)C)NC(=O)[C@H](CCC(N)=O)NC(=O)[C@H](CC(C)C)NC(=O)[C@H]([C@@H](C)O)NC(=O)[C@H](C(C)C)NC(=O)[C@H](CCCCN)NC1=O [SySA-45] (H-CVRVRLNNRRRGLKVTLQVC-OH; disulfide 1-20; N-terminus and C-terminus assumed)

More lines, now with the values behind:

SMILES | W3110 MIC (W3110) [µg/mL] | Ec W3110 MIC MH [µg/mL] | Ec W3110 MIC RPMI [µg/mL] | W3110 MIC MH (W3110) [µg/mL] | W3110 MIC RPMI (W3110) [µg/mL] | W3110 MIC MH (E. coli W3110, standard Mueller-Hinton broth, 37°C, 18-24 h, median of n=3) [µg/mL]
CC[C@H](C)[C@@H]1NC(=O)[C@H](CCCNC(=N)N)NC(=O)[C@H](C(C)C)NC(=O)[C@H](CCCNC(=N)N)NC(=O)[C@@H](N)CSSC[C@@H](C(=O)O)NC(=O)[C@H](CCC(N)=O)NC(=O)[C@H](C(C)C)NC(=O)[C@H](CCC(N)=O)NC(=O)[C@H](CC(C)C)NC(=O)[C@H](CCCCN)NC(=O)[C@H](CC(C)C)NC(=O)[C@H]([C@@H](C)O)NC(=O)CNC(=O)CNC(=O)[C@H](CCCNC(=N)N)NC(=O)[C@H](CC(N)=O)NC(=O)[C@H](CC(=O)O)NC(=O)[C@H](C(C)C)NC(=O)[C@H](CC(N)=O)NC1=O [SyRC-11] (H-CRVRINVDNRGGTLKLQVQC-OH; disulfide 1-20) | >256 | – | – | – | – | –
CC[C@H](C)[C@@H]1NC(=O)[C@H](CCCCN)NC(=O)[C@H](CC(C)C)NC(=O)CNC(=O)CNC(=O)[C@H](CCCNC(=N)N)NC(=O)[C@H](CCCNC(=N)N)NC(=O)[C@H](CC(=O)O)NC(=O)[C@H](CC(=O)O)NC(=O)[C@H](C(C)C)NC(=O)[C@H](CCCNC(=N)N)NC(=O)[C@H](C(C)C)NC(=O)[C@H](CCCNC(=N)N)NC(=O)[C@H](C(C)C)NC(=O)[C@@H](N)CSSC[C@@H](C(=O)O)NC(=O)[C@H](C(C)C)NC(=O)[C@H](CCC(N)=O)NC(=O)[C@H](CC(C)C)NC(=O)[C@H](CO)NC1=O [SyRA-12] (H-CVRVRVDDRRGGLKISLQVC-OH; disulfide 1-20) | >256 | – | – | – | – | –
CC[C@H](C)[C@@H]1NC(=O)[C@H](CC(N)=O)NC(=O)[C@H](C(C)C)NC(=O)[C@H](CCCCN)NC(=O)[C@H]([C@@H](C)CC)NC(=O)[C@H](CCCNC(=N)N)NC(=O)[C@@H](N)CSSC[C@@H](C(=O)O)NC(=O)[C@H](CCC(=O)O)NC(=O)[C@H](CC(C)C)NC(=O)[C@H](CCC(=O)O)NC(=O)[C@H](CC(C)C)NC(=O)[C@H](CCCNC(=N)N)NC(=O)[C@H](CC(C)C)NC(=O)[C@H](CCCNC(=N)N)NC(=O)[C@H](CCCNC(=N)N)NC(=O)[C@H](CO)NC(=O)[C@H](CCCNC(=N)N)NC(=O)[C@H](CC(=O)O)NC(=O)[C@H](CC(=O)O)NC1=O [SyRC-8] (H-CRIKVNIDDRSRRLRLELEC-OH; disulfide 1-20) | >256 | – | – | – | – | –
CC(C)C[C@@H]1NC(=O)[C@H](CCCNC(=N)N)NC(=O)[C@H](CCCNC(=N)N)NC(=O)[C@H](CCCNC(=N)N)NC(=O)[C@H](CCCNC(=N)N)NC(=O)[C@H](CC(N)=O)NC(=O)[C@H](CC(N)=O)NC(=O)[C@H](CC(C)C)NC(=O)[C@H](CCCNC(=N)N)NC(=O)[C@H](C(C)C)NC(=O)[C@H](CCCNC(=N)N)NC(=O)[C@H](C(C)C)NC(=O)[C@@H](N)CSSC[C@@H](C(=O)O)NC(=O)[C@H](C(C)C)NC(=O)[C@H](CCC(=O)O)NC(=O)[C@H](CC(C)C)NC(=O)[C@H](CO)NC(=O)[C@H](C(C)C)NC(=O)[C@H](CCCCN)NC1=O [SySA-16] (H-CVRVRLNNRRRRLKVSLEVC-OH; disulfide 1-20; N-terminus and C-terminus assumed) | – | 32 | 32 | 32 | 32 | –
CC[C@H](C)[C@@H]1NC(=O)[C@H](CCCNC(=N)N)NC(=O)[C@H](CC(C)C)NC(=O)CNC(=O)CNC(=O)CNC(=O)[C@H](CCCNC(=N)N)NC(=O)[C@H](CC(N)=O)NC(=O)[C@H](CC(N)=O)NC(=O)[C@H](CC(C)C)NC(=O)[C@H](CCCNC(=N)N)NC(=O)[C@H](C(C)C)NC(=O)[C@H](CCCNC(=N)N)NC(=O)[C@H](C(C)C)NC(=O)[C@@H](N)CSSC[C@@H](C(=O)O)NC(=O)[C@H](C(C)C)NC(=O)[C@H](CCC(N)=O)NC(=O)[C@H](CC(C)C)NC(=O)[C@H]([C@@H](C)O)NC1=O [SySA-27] (H-CVRVRLNNRGGGLRITLQVC-OH; disulfide 1-20; N-terminus and C-terminus assumed) | – | 256 | 64 | 256 | 64 | –
CC[C@H](C)[C@@H]1NC(=O)[C@H](CCCNC(=N)N)NC(=O)[C@H]([C@@H](C)CC)NC(=O)[C@H](CCCNC(=N)N)NC(=O)[C@@H](N)CSSC[C@@H](C(=O)O)NC(=O)[C@H](CCC(=O)O)NC(=O)[C@H](C(C)C)NC(=O)[C@H](CCC(=O)O)NC(=O)[C@H](CC(C)C)NC(=O)[C@H](CCCNC(=N)N)NC(=O)[C@H](C(C)C)NC(=O)[C@H]([C@@H](C)O)NC(=O)CNC(=O)CNC(=O)[C@H](CCCNC(=N)N)NC(=O)[C@H](CC(=O)O)NC(=O)[C@H](CC(N)=O)NC(=O)[C@H](C(C)C)NC(=O)[C@H](CC(N)=O)NC1=O [SyRC-4] (H-CRIRINVNDRGGTVRLEVEC-OH; disulfide 1-20) | >256 | – | – | – | – | –
CC(C)C[C@@H]1NC(=O)[C@H](CCCNC(=N)N)NC(=O)[C@H](C(C)C)NC(=O)[C@H]([C@@H](C)O)NC(=O)[C@H](CC(C)C)NC(=O)[C@@H](N)CSSC[C@@H](C(=O)O)NC(=O)[C@H](C(C)C)NC(=O)[C@H](CCC(N)=O)NC(=O)[C@H](C(C)C)NC(=O)[C@H](CO)NC(=O)[C@H](C(C)C)NC(=O)[C@H](CCCCN)NC(=O)[C@H](C(C)C)NC(=O)CNC(=O)[C@H](CCCNC(=N)N)NC(=O)[C@H](CCCNC(=N)N)NC(=O)[C@H](CCCNC(=N)N)NC(=O)[C@H](CC(N)=O)NC(=O)[C@H](CC(N)=O)NC1=O [SySA-81] (H-CLTVRLNNRRRGVKVSVQVC-OH; disulfide 1-20; N-terminus and C-terminus assumed) | – | 64 | 32 | 64 | 32 | –
CC[C@H](C)[C@@H]1NC(=O)[C@H](CC(=O)O)NC(=O)[C@H](C(C)C)NC(=O)[C@H](CCCCN)NC(=O)[C@H]([C@@H](C)CC)NC(=O)[C@H](CCCNC(=N)N)NC(=O)[C@@H](N)CSSC[C@@H](C(=O)O)NC(=O)[C@H](CCC(=O)O)NC(=O)[C@H](CC(C)C)NC(=O)[C@H](CCC(N)=O)NC(=O)[C@H](CC(C)C)NC(=O)[C@H](CCCNC(=N)N)NC(=O)[C@H](C(C)C)NC(=O)[C@H](CCCNC(=N)N)NC(=O)CNC(=O)[C@H](CCCNC(=N)N)NC(=O)[C@H](CCCNC(=N)N)NC(=O)[C@H](CC(=O)O)NC(=O)[C@H](CC(=O)O)NC1=O [SyRC-7] (H-CRIKVDIDDRRGRVRLQLEC-OH; disulfide 1-20) | >256 | – | – | – | – | –
